PMC12723449, “From Pharmacophore to Warhead: NAD^+‐Targeting Triazoles as Mechanism‐Based Sirtuin Inhibitors” (Angewandte Chemie (International Ed. in English), 2025)
Read-outs that look alike come from different tables or passages of the source.

Biological target: T1, NanoLuc–SIRT2 fusion protein in HEK293T cells (Homo sapiens, UniProt Q8IXJ6)
T1 construct: transfected HEK293T cells expressing the NanoLuc-tagged SIRT250-356 fusion protein were used instead of transient; expressed in transfected cells; host or cells: HEK293T (stably transfected)
T1 sequence (Q8IXJ6 50-356 limits assumed): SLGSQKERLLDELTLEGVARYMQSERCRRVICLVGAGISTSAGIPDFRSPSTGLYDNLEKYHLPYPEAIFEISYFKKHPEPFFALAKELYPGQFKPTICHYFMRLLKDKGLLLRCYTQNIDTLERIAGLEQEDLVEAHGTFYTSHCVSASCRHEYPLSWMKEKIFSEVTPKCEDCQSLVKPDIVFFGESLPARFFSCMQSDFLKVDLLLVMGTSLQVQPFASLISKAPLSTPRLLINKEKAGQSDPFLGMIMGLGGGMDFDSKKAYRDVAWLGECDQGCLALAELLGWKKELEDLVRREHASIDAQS
Test: NanoBRET cellular target engagement assay
Type: cell-based
Settings: for Ki: read-out: NanoBRET K i (Cheng–Prusoff)
Protocol: The NanoBRET target engagement assay was performed as previously described[2] with the modification that stably transfected HEK293T cells expressing the NanoLuc-tagged SIRT250-356 fusion protein were used instead of transient transfection. Briefly, HEK293T-NLuc- SIRT250-356 cells were cultured under standard conditions (37 °C, 5% CO2) in DMEM supplemented with 10% fetal bovine serum, 2 mM glutamine, and 300 µg/mL hygromycin as a selection marker. For the assay, cells were trypsinized, resuspended in Opti-MEM® reduced serum medium, and adjusted to a concentration of 2 × 10^5 cells per mL. […]
µM was used. Serially diluted inhibitor and tracer were added to the cell suspension, and 100 μL were seeded into 96-well white, sterile, nonbinding surface plates. To evaluate the cellular permeability of LTDi-1 (6), the non-ionic detergent digitonin (50 µg/ml) was added. Plates were incubated at 37 °C with 5% CO2 for 2 h. For BRET measurements, NanoBRET NanoGlo Substrate (Promega cat. #N1571) was added to the wells according to the […]
All measurements were performed using the 2102 EnVisionTM Multilabel Reader (PerkinElmer), equipped with a 460 nm filter (donor) and a 615 nm filter (acceptor). The BRET ratio was calculated as the ratio of acceptor to donor signal, and data were normalized to vehicle-treated controls. Apparent intracellular binding affinities (EC50 values) were determined by fitting dose-response curves using nonlinear regression analysis in GraphPad Prism. […]

[1] = 2 µM tracer, co-treatment with digitonin

Row | Compound | EC50 (without digitonin) [nM] | EC50 [1] [nM] | Ki [1] [nM] | EC50 (2 µM tracer, without digitonin) [nM] | Ki (2 µM tracer, without digitonin) [nM]
1 | COCCn1cc(COc2cccc(Cc3cnc(NC(=O)CSc4nc(C)cc(C)n4)s3)c2)nn1 [Compound 1, reference compound] | 2700 ± 100 | – | – | – | –
2 | CCCCCCCCCCCCc1cn(CCCC[C@H](NC(=O)[C@H](CCCCN)NC(=O)[C@@H]2CCCN2C(=O)[C@H](CC(C)C)NC(=O)[C@H](C)NC(=O)[C@H](CCC(=O)O)NC(C)=O)C(=O)N[C@H](C(=O)NCC(=O)NCC(N)=O)[C@@H](C)O)nn1 [Compound 6] | – | 160 ± 20 | 18 ± 2 | 340 ± 90 | 38 ± 10
